# Calls of active or inactive are those of the source. No cut-off for these calls is given here.
# How the values were obtained:
# [1] = molecular target: T1, Growth factor receptor-bound protein 2 (Homo sapiens, UniProt P62993); experiment: Displacement of biotin-Ahx-PSpYVNVQN peptide from GST fused Grb2 SH2 domain by ELISA
# [2] = molecular target: T1, Growth factor receptor-bound protein 2; experiment: Inhibition of Grb2 by ELISA
Activity [1],SMILES,further results
,NC(=O)CNc1nc(Nc2ccc(OP(=O)(O)O)cc2)nc(-c2ccccc2Oc2ccc(OP(=O)(O)O)cc2)n1,IC50 [1]: 265 µM
inactive,NC(=O)CNc1nc(Nc2ccc(OP(=O)(O)O)cc2)nc(-c2cccc(Oc3ccc(OP(=O)(O)O)cc3)c2)n1,
,Cc1ccc(OC(C)(C)C(=O)N[C@@H](Cc2ccc(OP(=O)(O)O)cc2)C(=O)N[C@@](C)(Cc2ccc(OP(=O)(O)O)cc2)C(=O)N[C@@H](CC(N)=O)C(N)=O)c(/N=N/c2ccccc2)c1,IC50 [2]: 0.011 µM
inactive,Cc1cc(-c2cccc(Oc3ccc(OP(=O)(O)O)cc3)c2)nc(Nc2ccc(-c3nn[nH]n3)cc2)n1,
